Measurements taken from patent US20230203174A1, “COMPOSITION FOR PREVENTING OR ALLEVIATING CELLULAR SENESCENCE” (SEOUL NATIONAL UNIVERSITY R&DB FOUNDATION, priority 2021, published 2023).
Read-outs that look alike come from different tables or passages of the source.

Assays:
Cdkn1a (p21) mRNA = assay: RT-qPCR of senescence marker Cdkn1a; format: cell-based, mouse
Description: (§1) RNA Preparation and Quantitative Real-Time PCR (RT-qPCR)

[1] = test system: CCL2, CCL5, and CCL7 mRNA; assay: RT-qPCR of SASP factors CCL2, CCL5, CCL7; format: cell-based, mouse
Description: as §1

MC3T3-E1 cells [2] = assay: SA-β-gal staining of senescent cells; format: cell-based, mouse
Method: Senescence Associated-β-Galactosidase (SA-β-gal) Staining
SA-β-gal staining was performed with reference to the paper (2009) published by the Debacq-Chainiaux group. Cells cultured on coverslips were fixed in 4% paraformaldehyde at room temperature for 6 min. After washing cells three times with PBS, the cells were reacted for 16-24 hours in a staining solution [40 mM Na2HPO4, pH 6.0, 150 mM NaCl, 2 mM MgCl2, 5 mM K3Fe(CN)6, 5 mM K4Fe(CN)6 and 1 mg/ml X-Gal]. After washing 3 times with PBS, it was permeabilized with PBS containing 0.2% Triton X-100 at room temperature for 15 minutes. For nuclear staining, a mounting solution containing 4′,6-diamidino-2-phenylindole (DAPI) was used (AR-6501-01; ImmunoBioScience Corp., Mukilteo, Wash., USA). Images were acquired using an Eclipse TS-100 inverted microscope (Nikon). Using the ImageJ program, nucleus (DAPI) and SA-b-gal positive cells were counted in each image and compared as an average of % SA-β-gal positive cells (SA-β-gal positive cells/nuclear number×100) using the ImageJ program using 10 images of different parts per group.

MC3T3-E1 cells [3] = assay: Osteoblast differentiation by ALP and Alizarin Red S staining; format: cell-based, mouse
Description: In addition, it was shown that and a level of protein and an expression of cdkn1a (p21) mRNA which is a molecular marker of cellular senescence, were increased by H2O2 treatment (B and C).

PADI2 [4] = details: human-derived mesenchymal stromal cells (hMSC), 100 μM H2O2
Method: (§2) Protein was extracted using a PRO-PREP protein extraction solution (Cat #17081, iNtRON, Korea) according to a manufacturer's protocol. The same amount of protein was transferred to a polyvinylidene fluoride (PVDF) membrane after sodium dodecyl sulfate polyacrylamide gel electrophoresis (SDS-PAGE). After blocking with 5% non-fat milk, membranes were blotted in primary antibody solution at 4° C. in a refrigerator overnight. A membrane reacted with a primary antibody was washed 3 times every 5 minutes with PBS-0.05% Tween 20 solution, then reacted with a secondary antibody for 1-2 hours at room temperature, and then the membrane was washed 3 times with PBS-0.05% Tween 20 solution for 5 minutes. Thereafter, the images were acquired on an ImageQuant LAS4000 Mini (GE Healthcare) using chemiluminescence (Clarity™ Western ECL Substrate, #170-5060; Bio-Rad). α-Tubulin or β-actin was used as a protein loading control.
Total RNA was isolated using the RNeasy Mini Kit (Qiagen, Hilden, Germany). Total RNA (1 μg) was reverse transcribed into cDNA using PrimeScript RT Master Mix (Perfect Real Time) (RR036A; TaKaRa, Japan) and a real-time PCR was performed on an STEPONEPLUS™ Real-Time PCR System (APPLIED BIOSYSTEMS™) instr μMent using TB GREEN® PREMIX EX TAQ™ (RR420A; TaKaRa). […]

[5] = test system: NFκB RelA transcription factor; details: MC3T3-E1 cells, 100 μM H2O2 for 24 h
Method: After collecting cells with PBS, a cell pellet was equally divided into two tubes for whole-cell lysate and cell fractionation. The whole-cell lysate prepared with 100 μL of lysis buffer composed of 25 mM Tris-HCl pH 7.4, 150 mM NaCl, 1% NP-40, 1 mM EDTA, 5% glycerol, protease inhibitor cocktail (Roche, #11-836-153-001), phosphatase inhibitor cocktail 2 and 3 (Sigma-Aldrich, P5726 and P004 SEQ ID NO: 4). The nuclear-cytoplasmic fraction was isolated using NEPER™ nuclear and cytoplasmic extraction reagents (78855; Life Technologies, Carlsbad, Calif., USA) according to a manufacturer's protocol. Protein concentration was determined using the Pierce™ BCA Protein Assay Kit (Thermo Fisher Scientific). The whole-cell lysate, a cytoplasmic extract and a nuclear extract were separated by SDS-PAGE, transferred to PVDF membrane, and then Western blot analysis was performed with designated primary and secondary antibodies. Tubulin and Lamin A/C were used as cytoplasmic and nuclear markers, respectively.
Cells cultured on coverslips were fixed in 4% paraformaldehyde, blocked with PBS containing 2% BSA, and then reacted in a refrigerator overnight in a primary antibody solution. […] A degree of fluorescence expression was observed using a confocal microscope (LSM 800, Carl Zeiss), and representative cells were selected and photographed.

p21 = details: MC3T3-E1 cells, H2O2 treatment
Method: as §2

PADI2 [6] = assay: PADI2 expression (RT-qPCR, Western blot) in MC3T3-E1 cells; format: cell-based, mouse
Description: as §1

[7] = 1 μM Bay11-7082 co-treated with 100 μM H2O2
[8] = Padi2 knockdown plus NFκB inhibition

Row | Compound | expression of Cdkn1a (Cdkn1a (p21) mRNA; [7]) | Cdkn1a expression increased by Padi2 knockdown (Cdkn1a (p21) mRNA; [8]) | expressions of CCL2, CCL5, and CCL7 (mRNA levels) increased by H2O2 ([1]; combined with H2O2 treatment) | number of senescent cells increased by H2O2 alone (MC3T3-E1 cells [2]; [7]) | number of senescent cells increased by Padi2 knockdown (MC3T3-E1 cells [2]; [8]) | function degradation of osteoblast (ALP and ARS staining) (MC3T3-E1 cells [3]; caused by excessive ROS and Padi2 knockdown) | expression of cdkn1a (p21) mRNA (Cdkn1a (p21) mRNA; MC3T3-E1 cells, H2O2 treatment) | expression of PADI2 (mRNA level and protein level) (PADI2 [4]) | CCL2, CCL5, and CCL7 in SASP (RNA-seq and RT-qPCR) ([1]; upon H2O2 treatment) | NFκB RelA activation and transfer from cytoplasm to nucleus [5] | number of SA-β-gal positive cells (MC3T3-E1 cells [2]; MC3T3-E1 cells, 50 μM or 100 μM H2O2 for 3 days) | level of p21 protein (p21) | Padi2 mRNA level (PADI2 [6]; MC3T3-E1 cells, 100 μM H2O2 for 1, 4, and 7 days in differentiation medium, RT-qPCR) | expression of PADI2 (mRNA level and protein level) (PADI2 [6]; mouse-derived MC3T3-E1 cells, 100 μM H2O2) | osteoblast differentiation function (ALP and Alizarin Red S staining) (MC3T3-E1 cells [3]; MC3T3-E1 cells, excessive ROS (H2O2))
1 | Cc1ccc(S(=O)(=O)/C=C/C#N)cc1 [Bay11-7082] | reduced | decreased | significantly reduced | reduced | decreased | restored | – | – | – | – | – | – | – | – | –
2 | OO [H2O2, hydrogen peroxide] | – | – | – | – | – | – | increased | significantly reduced | significantly increased | migration to the nucleus was observed | increased in a H2O2 concentration-dependent manner | increased | significantly reduced | significantly reduced | significantly inhibited
